Test results reported in patent US11986471B2, “Compounds and methods of use” (Tango Therapeutics, Inc., priority 2018, dated 2024).

Legend:
PRMT5 [1] = target: T1, PRMT5 (Homo sapiens, UniProt O14744); experiment: PRMT5 IC50 assay with no cofactor; assay type: biochemical
T1 construct: purchased Viva (custom protein)
Method in brief: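 Enzyme: human PRMT5. Conditions: plus SAM, plus MTA, or cofactor-free. Output: IC50 (μM); Ki via IC50/1.5 (SAM) or IC50/13.5 (MTA).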

PRMT5 [2] = target: T1, PRMT5; experiment: PRMT5 IC50 assay in the presence of MTA as cofactor; assay type: biochemical; conditions: for IC50: PRMT5, MTA as cofactor
Method in brief: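 IC50 against PRMT5 determined with SAM as cofactor, with no cofactor, and with MTA as cofactor. Ki derived as IC50/1.5 for the SAM assay and IC50/13.5 for the MTA assay; SAM Ki to MTA Ki ratio also reported.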

PRMT5 [3] = target: T1, PRMT5; experiment: PRMT5 IC50 assay in the presence of SAM as cofactor; assay type: biochemical
Method in brief: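 Ki conversion: SAM arm, Ki=IC50/1.5; MTA arm, Ki=IC50/13.5. No-cofactor arm reported as IC50 only. Selectivity expressed as Ki(SAM)/Ki(MTA).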

HAP1 MTAP-deleted = experiment: SDMA in-cell western assay, HAP1 MTAP-deleted cell line; assay type: cell-based; conditions: for IC50: Homo sapiens, HAP1 MTAP-deleted cell line; for MTAP Intact/Deleted Ratio: IC50 ratio HAP1 MTAP-intact / HAP1 MTAP-deleted
Method in brief: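 MTAP-null HAP1 cells, the deleted member of an isogenic pair with endogenously MTAP-expressing HAP1, are treated with compound. SDMA is then quantified by in-cell western and an IC50 is calculated.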

HAP1 MTAP-intact = experiment: SDMA in-cell western assay, HAP1 MTAP-intact cell line; assay type: cell-based; conditions: Homo sapiens
Method in brief: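 Cells from two matched HAP1 lines, MTAP-null and MTAP-expressing at endogenous levels, are treated with compound. SDMA is then quantified by in-cell western and an IC50 is calculated for each line.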

[4] = ratio between Ki in the presence of SAM and Ki in the presence of MTA
[5] = ratio between the Ki in the presence of SAM and the Ki in the presence of MTA

T1 sequence (O14744 whole entry): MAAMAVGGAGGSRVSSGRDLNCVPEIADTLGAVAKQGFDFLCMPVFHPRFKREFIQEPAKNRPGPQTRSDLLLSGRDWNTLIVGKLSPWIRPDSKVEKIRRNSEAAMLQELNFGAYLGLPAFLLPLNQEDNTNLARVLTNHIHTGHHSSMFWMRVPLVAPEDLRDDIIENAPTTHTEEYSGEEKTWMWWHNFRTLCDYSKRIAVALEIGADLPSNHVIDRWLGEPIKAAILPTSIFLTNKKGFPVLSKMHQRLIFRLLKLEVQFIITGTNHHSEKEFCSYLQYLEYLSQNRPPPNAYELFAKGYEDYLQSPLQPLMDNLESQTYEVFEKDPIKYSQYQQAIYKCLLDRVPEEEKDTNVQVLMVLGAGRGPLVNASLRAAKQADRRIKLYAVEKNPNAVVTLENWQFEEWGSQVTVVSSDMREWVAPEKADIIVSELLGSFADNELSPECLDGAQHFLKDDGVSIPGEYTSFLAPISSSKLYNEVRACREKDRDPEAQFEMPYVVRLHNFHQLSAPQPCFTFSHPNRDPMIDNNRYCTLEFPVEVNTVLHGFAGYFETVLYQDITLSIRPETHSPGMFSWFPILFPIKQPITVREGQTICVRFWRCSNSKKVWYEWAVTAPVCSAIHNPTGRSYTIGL
T1 sequence (Q9BQA1 whole entry partner): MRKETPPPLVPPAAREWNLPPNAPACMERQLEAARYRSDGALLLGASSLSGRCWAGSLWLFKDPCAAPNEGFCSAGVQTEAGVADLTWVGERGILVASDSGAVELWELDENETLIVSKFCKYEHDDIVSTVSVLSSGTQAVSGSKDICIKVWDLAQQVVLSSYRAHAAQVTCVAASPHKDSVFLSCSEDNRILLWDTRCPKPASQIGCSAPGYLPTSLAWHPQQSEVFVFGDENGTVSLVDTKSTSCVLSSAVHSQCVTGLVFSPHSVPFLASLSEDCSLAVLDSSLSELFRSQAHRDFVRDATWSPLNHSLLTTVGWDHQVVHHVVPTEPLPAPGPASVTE

Row | IC50 (PRMT5 [1]; read-out: No Co-factor IC50) | IC50 (PRMT5 [2]) | IC50 (PRMT5 [3]) | IC50 (HAP1 MTAP-deleted) | IC50 (HAP1 MTAP-intact) | IC50 (PRMT5 [1]) | SMILES | SAM/MTA Ratio (PRMT5 [2]; [4]) | MTAP Intact/Deleted Ratio (HAP1 MTAP-deleted) | SAM/MTA Ratio (PRMT5 [2]; [5])
1 |  | 50 to 500 nM | 50 to 500 nM | 1000 to 10000 nM | ≥ 10000 nM | 500 to 5000 nM | CC(=O)N1CCC(Nc2cc(C(=O)NC[C@H](O)CN3CCc4c(ccc(OCc5cnco5)c4Cl)C3)ccn2)CC1 [Compound 429] |  | B* (an IC50 ratio greater than or equal to 3 fold but lower than 10 fold between the IC50 in the HAP1 MTAP-intact cell line and the HAP1 MTAP-deleted cell line) | A (a Ki ratio greater than or equal to 10 fold between the Ki in the presence of SAM and the Ki in the presence of MTA)
2 |  | 50 to 500 nM | 50 to 500 nM | 1000 to 10000 nM | ≥ 10000 nM | 500 to 5000 nM | CS(=O)(=O)N1CCC(Nc2cc(C(=O)NC[C@H](O)CN3CCc4cc(OCc5cnco5)ccc4C3)ccn2)CC1 [Compound 430, N-[(2S)-2-hydroxy-3-[6-(oxazol-5-ylmethoxy)-3,4-dihydro-1H-isoquinolin-2-yl]propyl]-2-[(1-methylsulfonyl-4-piperidyl)amino]pyridine-4-carboxamide] |  | C* (an IC50 ratio of less than 3 fold between the IC50 in the HAP1 MTAP-intact cell line and the HAP1 MTAP-deleted cell line) | A (a Ki ratio greater than or equal to 10 fold between the Ki in the presence of SAM and the Ki in the presence of MTA)
3 |  | 50 to 500 nM | 50 to 500 nM | < 1000 nM | 1000 to 10000 nM | 500 to 5000 nM | CCCC(=O)N1CCC(Nc2cc(C(=O)NC[C@H](O)CN3CCc4cc(OCc5cnco5)ccc4C3)ccn2)CC1 [Compound 431, 2-[(1-butanoyl-4-piperidyl)amino]-N-[(2S)-2-hydroxy-3-[6-(oxazol-5-ylmethoxy)-3,4-dihydro-1H-isoquinolin-2-yl]propyl]pyridine-4-carboxamide] |  | B* (an IC50 ratio greater than or equal to 3 fold but lower than 10 fold between the IC50 in the HAP1 MTAP-intact cell line and the HAP1 MTAP-deleted cell line) | A (a Ki ratio greater than or equal to 10 fold between the Ki in the presence of SAM and the Ki in the presence of MTA)
4 |  | 50 to 500 nM | 50 to 500 nM | 1000 to 10000 nM | ≥ 10000 nM | 500 to 5000 nM | CC(C)(C)C(=O)N1CCC(Nc2cc(C(=O)NC[C@H](O)CN3CCc4c(ccc(OCc5cnco5)c4Cl)C3)ccn2)CC1 [Compound 432, (S)—N-(3-(5-chloro-6-(oxazol-5-ylmethoxy)-3,4-dihydroisoquinolin-2(1H)-yl)-2-hydroxypropyl)-2-((1-pivaloylpiperidin-4-yl)amino)isonicotinamide] |  | B* (an IC50 ratio greater than or equal to 3 fold but lower than 10 fold between the IC50 in the HAP1 MTAP-intact cell line and the HAP1 MTAP-deleted cell line) | A (a Ki ratio greater than or equal to 10 fold between the Ki in the presence of SAM and the Ki in the presence of MTA)
5 |  | 50 to 500 nM | 50 to 500 nM | < 1000 nM | 1000 to 10000 nM | 500 to 5000 nM | O=C(NC[C@H](O)CN1CCc2cc(OCc3cnco3)ccc2C1)c1ccnc(NC2CCN(C(=O)C3CCC3)CC2)c1 [Compound 433, 2-[[1-(cyclobutanecarbonyl)-4-piperidyl]amino]-N-[(2S)-2-hydroxy-3-[6-(oxazol-5-ylmethoxy)-3N-dihydro-1H-isoquinolin-2-yl]propyl]pyridine-4-carboxamide] |  | B* (an IC50 ratio greater than or equal to 3 fold but lower than 10 fold between the IC50 in the HAP1 MTAP-intact cell line and the HAP1 MTAP-deleted cell line) | A (a Ki ratio greater than or equal to 10 fold between the Ki in the presence of SAM and the Ki in the presence of MTA)
6 |  | 50 to 500 nM | 50 to 500 nM | < 1000 nM | 1000 to 10000 nM | ≥ 5000 nM | CCCC(=O)N1CC(Nc2cc(C(=O)NC[C@H](O)CN3CCc4cc(OCc5cnco5)ccc4C3)ccn2)C1 [Compound 434] |  | C* (an IC50 ratio of less than 3 fold between the IC50 in the HAP1 MTAP-intact cell line and the HAP1 MTAP-deleted cell line) | A (a Ki ratio greater than or equal to 10 fold between the Ki in the presence of SAM and the Ki in the presence of MTA)
7 |  | 50 to 500 nM | 50 to 500 nM | ≥ 10000 nM | ≥ 10000 nM | ≥ 5000 nM | Cc1ncoc1COc1ccc2c(c1C)CCN(C[C@@H](O)CNC(=O)c1cc(NC3COC3)nc(N3CCN(C(C)(C)C)CC3)n1)C2 [Compound 435, 2-(4-tert-butylpiperazin-1-yl)-N-[(2S)-2-hydroxy-3-{5-methyl-6-[(4-methyl-1,3-oxazol-5-yl)methoxy]-1,2,3,4-tetrahydroisoquinolin-2-yl}propyl]-6-[(oxetan-3-yl)amino]pyrimidine-4-carboxamide] |  | C* (an IC50 ratio of less than 3 fold between the IC50 in the HAP1 MTAP-intact cell line and the HAP1 MTAP-deleted cell line) | A (a Ki ratio greater than or equal to 10 fold between the Ki in the presence of SAM and the Ki in the presence of MTA)
8 |  | 500 to 5000 nM | 500 to 5000 nM | ≥ 10000 nM | ≥ 10000 nM | ≥ 5000 nM | Cc1c(OCc2cnco2)ccc2c1CCN(C[C@@H](O)CNC(=O)c1cc(NC3CCCCC3)ncn1)C2 [Compound 436, 6-(cyclohexylamino)-N-[(2S)-2-hydroxy-3-{5-methyl-6-[(1,3-oxazol-5-yl)methoxy]-1,2,3,4-tetrahydroisoquinolin-2-yl}propyl]pyrimidine-4-carboxamide] |  | C* (an IC50 ratio of less than 3 fold between the IC50 in the HAP1 MTAP-intact cell line and the HAP1 MTAP-deleted cell line) | A (a Ki ratio greater than or equal to 10 fold between the Ki in the presence of SAM and the Ki in the presence of MTA)

Continued, molecule first:

Row | SMILES | IC50 (PRMT5 [1]; read-out: No Co-factor IC50) | IC50 (PRMT5 [2]) | IC50 (PRMT5 [3]) | IC50 (HAP1 MTAP-deleted) | IC50 (HAP1 MTAP-intact) | IC50 (PRMT5 [1]) | SAM/MTA Ratio (PRMT5 [2]; [4]) | MTAP Intact/Deleted Ratio (HAP1 MTAP-deleted) | SAM/MTA Ratio (PRMT5 [2]; [5])
9 | Cc1c(OCc2cnco2)ccc2c1CCN(C[C@@H](O)CNC(=O)c1cccc(NC3COC3)c1)C2 [Compound 424, N-[(2S)-2-hydroxy-3-{5-methyl-6-[(1,3-oxazol-5-yl)methoxy]-1,2,3,4-tetrahydroisoquinolin-2-yl}propyl]-3-[(oxetan-3-yl)amino]benzamide] | ≥ 5000 nM | 500 to 5000 nM | 500 to 5000 nM | ≥ 10000 nM | ≥ 10000 nM |  | A (a Ki ratio greater than or equal to 10 fold between the Ki in the presence of SAM and the Ki in the presence of MTA) | C* (an IC50 ratio of less than 3 fold between the IC50 in the HAP1 MTAP-intact cell line and the HAP1 MTAP-deleted cell line) | 
10 | O=C(NC[C@H](O)CN1CCc2c(ccc(OCc3cnco3)c2Cl)C1)c1ccnc(NC2CCC(F)(F)CC2)c1 [Compound 425, (S)—N-(3-(5-chloro-6-(oxazol-5-ylmethoxy)-3,4-dihydroisoquinolin-2(1H)-yl)-2-hydroxypropyl)-2-((4N-difluorocyclohexyl)amino)isonicotinamide] | ≥ 5000 nM | 50 to 500 nM | 50 to 500 nM | ≥ 10000 nM | ≥ 10000 nM |  | A (a Ki ratio greater than or equal to 10 fold between the Ki in the presence of SAM and the Ki in the presence of MTA) | C* (an IC50 ratio of less than 3 fold between the IC50 in the HAP1 MTAP-intact cell line and the HAP1 MTAP-deleted cell line) | 
11 | CCC(=O)N1CC(Nc2cc(C(=O)NC[C@H](O)CN3CCc4c(ccc(OCc5cnco5)c4Cl)C3)ccn2)C1 [Compound 426, (S)—N-(3-(5-chloro-6-(oxazol-5-ylmethoxy)-3,4-dihydroisoquinolin-2(1H)-yl)-2-hydroxypropyl)-2-((1-propionylazetidin-3-yl)amino)isonicotinamide] |  | 50 to 500 nM | 50 to 500 nM | ≥ 10000 nM | ≥ 10000 nM | 500 to 5000 nM |  | C* (an IC50 ratio of less than 3 fold between the IC50 in the HAP1 MTAP-intact cell line and the HAP1 MTAP-deleted cell line) | A (a Ki ratio greater than or equal to 10 fold between the Ki in the presence of SAM and the Ki in the presence of MTA)
12 | Cc1c(OCc2cnco2)ccc2c1CCN(C[C@@H](O)CNC(=O)c1ccnc(NC3CCN(C(=O)C(C)C)CC3)c1)C2 [Compound 427] |  | 50 to 500 nM | 50 to 500 nM | 1000 to 10000 nM | ≥ 10000 nM | 500 to 5000 nM |  | B* (an IC50 ratio greater than or equal to 3 fold but lower than 10 fold between the IC50 in the HAP1 MTAP-intact cell line and the HAP1 MTAP-deleted cell line) | A (a Ki ratio greater than or equal to 10 fold between the Ki in the presence of SAM and the Ki in the presence of MTA)
13 | Cc1ncoc1COc1ccc2c(c1)CCN(C[C@@H](O)CNC(=O)c1cc(NC3CCC3)nc(N3CCN(C(C)C)CC3)c1)C2 [Compound 428, 2-(cyclobutylamino)-N-[(2S)-2-hydroxy-3-{6-[(4-methyl-1,3-oxazol-5-yl)methoxy]-1,2,3,4-tetrahydroisoquinolin-2-yl}propyl]-6-[4-(propan-2-yl)piperazin-1-yl]pyridine-4-carboxamide] |  | < 50 nM | 50 to 500 nM | ≥ 10000 nM | ≥ 10000 nM | 500 to 5000 nM |  | C* (an IC50 ratio of less than 3 fold between the IC50 in the HAP1 MTAP-intact cell line and the HAP1 MTAP-deleted cell line) | A (a Ki ratio greater than or equal to 10 fold between the Ki in the presence of SAM and the Ki in the presence of MTA)
